# Measured values: PMC6376317, “Fluoromethylcyclopropylamine derivatives as potential in vivo toxicophores – A cautionary disclosure” (Bioorganic & Medicinal Chemistry Letters, 2019)
# Entries after “also recorded” stand apart in the source; their conditions may differ. Where two headings read alike, the source gives them in different places.
# Assays:
# [1] = Human liver microsomal stability; assay type: in vitro ADME; conditions: liver microsomes, read-out: Human Microsomes T1/2
# Text: Table 1 Improvements to metabolic stability through cyclopropyl modification. | column: Human Microsomes T1/2 (minutes)
# [2] = In vivo pharmacokinetics in CD-1 mice; parameters: species or system mouse; conditions: for In vivo half-life: initial in vivo PK studies; for Fold exposure relative to cell IC50: defined as [Cmax(free)]/Cell IC50
# Procedure: (§1) Pharmacokinetics were studied in 6-8 week old male CD-1 mice following single intravenous or oral administration. Compounds were formulated as solutions comprising up to 10% DMSO with up to 10% Tween80 in saline at a concentration of approximately 1 mM. Doses were administered at 1 mg/kg (intravenous) or 5 mg/kg (oral gavage) unless otherwise stated. Blood samples were collected as dried blood spots (Agilent Bond Elut DMS cards) and assayed following solvent extraction using methanol, through a phospholipid removal plate (Phree phospholipid removal plates, Phenomenex) followed by LC-MS/MS analysis. The time-points for blood collection were as follows: oral (0.5, 1, 3, 5 and 24 h); intravenous (0.1, 0.25, 0.75, 2, 5 and 24 h). The resulting concentration-time data were analyzed by non-compartmental methods (PK Solver, Excel Add-In).
# [3] = Metabolite identification studies; assay type: in vitro ADME; conditions: formed via removal of the cyclopropylmethyl moiety
# Text: In an attempt to improve the in vivo PK profile, we undertook a series of metabolite identification studies, to determine the key sites of metabolism on 1 and 2.
# CD-1 mice = test: In vivo tolerability / toxicity observation during PK studies; parameters: species or system mouse; conditions: for Toxicity Observed / Time of onset of ataxia after oral dosing: mice; for Tolerability in vivo: oral doses from 5 mg/kg to 160 mg/kg; for Time of onset of ataxia after oral dosing: oral dosing arm, 5 mg/kg
# Procedure: We therefore initiated a dose-escalation study to examine dose versus exposure of the compound. […] Our following study, with derivative 12, incorporated enhanced monitoring and here we observed the onset of ataxia shortly after the 5 h sampling time point, and exclusively in the oral dosing arm of the study, despite lower absolute and free drug exposures in these dosing arms.
# as §1
# PARG [4] = target: T1, PARG (Homo sapiens, UniProt Q86W56); assay type: biochemical; conditions: read-out: PARG Enzyme Activity
# T1 sequence (Q86W56 whole entry, species assumed): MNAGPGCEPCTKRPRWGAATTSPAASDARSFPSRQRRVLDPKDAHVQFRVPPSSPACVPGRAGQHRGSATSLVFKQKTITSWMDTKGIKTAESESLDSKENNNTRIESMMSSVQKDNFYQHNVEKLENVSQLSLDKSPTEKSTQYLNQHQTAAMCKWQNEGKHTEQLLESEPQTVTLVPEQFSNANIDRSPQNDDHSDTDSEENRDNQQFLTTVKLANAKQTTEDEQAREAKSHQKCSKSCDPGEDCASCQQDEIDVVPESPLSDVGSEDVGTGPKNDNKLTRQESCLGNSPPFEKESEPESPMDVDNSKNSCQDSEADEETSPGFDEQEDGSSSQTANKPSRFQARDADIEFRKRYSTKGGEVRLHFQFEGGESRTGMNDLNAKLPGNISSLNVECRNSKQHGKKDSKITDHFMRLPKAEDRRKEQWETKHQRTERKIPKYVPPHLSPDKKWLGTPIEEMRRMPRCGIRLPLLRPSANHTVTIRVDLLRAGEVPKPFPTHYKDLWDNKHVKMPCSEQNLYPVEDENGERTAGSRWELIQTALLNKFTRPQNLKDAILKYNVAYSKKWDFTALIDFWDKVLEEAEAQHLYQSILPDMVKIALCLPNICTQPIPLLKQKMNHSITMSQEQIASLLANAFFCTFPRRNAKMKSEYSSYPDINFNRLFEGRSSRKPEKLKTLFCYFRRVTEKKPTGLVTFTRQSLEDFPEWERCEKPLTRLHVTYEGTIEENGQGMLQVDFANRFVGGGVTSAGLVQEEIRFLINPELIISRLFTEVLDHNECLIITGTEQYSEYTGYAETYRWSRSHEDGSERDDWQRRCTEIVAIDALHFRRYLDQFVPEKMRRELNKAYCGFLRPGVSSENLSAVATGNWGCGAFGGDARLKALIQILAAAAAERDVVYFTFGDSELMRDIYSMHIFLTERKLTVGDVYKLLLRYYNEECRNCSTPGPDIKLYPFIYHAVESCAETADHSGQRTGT
# PARG [5] = target: T1, PARG; assay type: cell-based; conditions: read-out: PARG Cell Assay
# [6] = Mouse microsomal stability; assay type: in vitro ADME; conditions: microsomes, read-out: Mouse Microsomes T1/2
# [7] = oral dose 5 (mg/kg), male CD-1 mice
# [8] = geometric mean of at least two independent determinations
Structure (SMILES),half-life [1],"Fold exposure relative to cell IC50 [2, 7]",Toxicity Observed (CD-1 mice; oral dose 5 (mg/kg)),IC50 (PARG [4]; [8]),IC50 (PARG [5]; [8]),half-life [6],also measured
Cn1cc(Cn2c(=O)c3cc(S(=O)(=O)NC4(C)CC4)ccc3n(Cc3ccn(C)n3)c2=O)cn1 [Compound 1],53 min,0.96,No,20 nM,90 nM,22 min,"In vivo half-life ([2]; in words): short half-lives; Fold exposure relative to cell IC50 ([2]; oral dose 160 (mg/kg), mice): 350; Major metabolite [3]: primary sulphonamides 3 and 4; Toxicity Observed (CD-1 mice; oral dose 160 (mg/kg)): No; Tolerability in vivo (CD-1 mice): well tolerated"
Cc1cc(Cn2c(=O)c3cc(S(=O)(=O)NC4(C)CC4)ccc3n(C)c2=O)on1 [Compound 2],–,–,–,–,–,–,In vivo half-life ([2]; in words): short half-lives; Major metabolite [3]: primary sulphonamides 3 and 4; Tolerability in vivo (CD-1 mice): well tolerated
Cn1cc(Cn2c(=O)c3cc(S(=O)(=O)NC4(CF)CC4)ccc3n(Cc3ccn(C)n3)c2=O)cn1 [Compound 5],82 min,0.18,No,20 nM,170 nM,37 min,"In vivo clearance ([2]; mice, in words): very rapidly cleared after oral dosing; also recorded: high clearance"
Cn1cc(Cn2c(=O)c3cc(S(=O)(=O)NC4(C(F)F)CC4)ccc3n(Cc3ccn(C)n3)c2=O)cn1 [Compound 6],71 min,–,–,320 nM,1250 nM,42 min,–
Cn1cc(Cn2c(=O)c3cc(S(=O)(=O)NC4(C(F)(F)F)CC4)ccc3n(Cc3ccn(C)n3)c2=O)cn1 [Compound 7],102 min,–,–,3600 nM,4100 nM,38 min,–
[2H]C([2H])([2H])C1(NS(=O)(=O)c2ccc3c(c2)c(=O)n(Cc2cnn(C)c2)c(=O)n3Cc2ccn(C)n2)CC1 [Compound 8],34 min,–,–,30 nM,70 nM,18 min,–
CCn1c(=O)n(Cc2cnn(C)c2)c(=O)c2cc(S(=O)(=O)NC3(C)CC3)ccc21 [Compound 9],–,–,No,–,–,47 min,–
CCn1c(=O)n(Cc2cnn(C)c2)c(=O)c2cc(S(=O)(=O)NC3(CF)CC3)ccc21 [Compound 10],–,15,well tolerated and No,–,–,102 min,Toxicity Observed (CD-1 mice; oral dose 10 (dose-escalation study)): one animal was found dead on study; also recorded: liver toxicity was the probable cause of death; IC50 (PARG [4]): 100 nM; IC50 (PARG [5]): 80 nM
Cn1cc(Cn2c(=O)c3cc(S(=O)(=O)NC4(C)CC4)ccc3n(C)c2=O)cn1 [Compound 11],–,–,No,–,–,82 min,–
Cn1cc(Cn2c(=O)c3cc(S(=O)(=O)NC4(CF)CC4)ccc3n(C)c2=O)cn1 [Compound 12],–,61,Ataxia,–,–,285 min,"Total exposure and Cmax relative to compound 1 ([2]; in vivo, mice): over four-fold lower; Time of onset of ataxia after oral dosing (CD-1 mice): > 5 h; IC50 (PARG [4]): 630 nM; IC50 (PARG [5]): 290 nM"
CCn1c(=O)n(Cc2cc(C)on2)c(=O)c2cc(S(=O)(=O)NC3(CF)CC3)ccc21 [Compound 13],–,0.28,Ataxia,1520 nM,6600 nM,121 min,Time of onset of ataxia after oral dosing (CD-1 mice): > 5 h
